In the supplement of paper PMC11997997:

Legend:
[1] = system: murine bone marrow-derived macrophages; experiment: area under cytotoxicity dose-response curve (AUC (% cytotoxicity x dose, relative)); higher = more cytotoxic; details: duration: 6 days; dose range: 0.13-80 uM, 8 points
Procedure, shortened: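 Cytotoxicity is expressed as the area under the dose–response curve from GraphPad Prism version 10. To obtain it, primary murine bone marrow-derived macrophages were incubated for 6 days at 37 °C in 5% CO2 across final concentrations of 80–0.13 μM. Viability came from CellTiter-Glo luminescence, and percent cytotoxicity was normalised to vehicle and positive control wells.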

[2] = system: Mycobacterium tuberculosis CDC1551 (intracellular, in murine BMDM); experiment: area under intracellular growth-inhibition dose-response curve (AUC (% inhibition x dose, relative)); higher = more potent; details: duration: 6 days; dose range: 0.13-80 uM, 8 points
Procedure, shortened: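 In 384-well opaque plates, primary murine bone marrow-derived macrophages were infected with luciferase-expressing M. tuberculosis CDC1551 (multiplicity of infection 1, 1 h) 24 h after seeding, then treated for 6 days across final concentrations of 80–0.13 μM. Growth was measured by Bright-Glo luciferin assay, normalised to a reference drug control and the lowest-concentration wells. The reported value is the area under the growth-inhibition dose–response curve from GraphPad Prism.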

Row | SMILES | area under cytotoxicity dose-response curve [1] | area under intracellular growth-inhibition dose-response curve [2]
1 | Cc1ccc(C2=NCCn3c2c2ccc(C(F)(F)F)cc2[n+]3[O-])cc1 | < 0 | 161
2 | COc1ccc(-c2c(C)cc3oc(=O)cc(-c4ccccc4)c3c2C)cc1 | 33.9 | 154
3 | Cc1ccc(C[n+]2c(-c3ccc(C)cc3)cc(-c3ccc(C)cc3)cc2-c2ccc(C)cc2)cc1.[O-][Cl+3]([O-])([O-])[O-] | 59.3 | 253
4 | COc1c(N2CCN(C(=S)NCc3ccccc3)C(C)C2)c(F)cc2c(=O)c(C(=O)O)cn(C3CC3)c12 (centres undefined) | < 0 | 165
5 | Cc1nc2ccccn2c1C(=O)NCc1ccc2c(c1)OCO2 | 38.9 | 203
6 | COc1c(N2C[C@@H]3CCCN[C@@H]3C2)c(F)cc2c(=O)c(C(=O)O)cn(C3CC3)c12.Cl | 62.8 | 269
7 | O=C(N/N=C/c1ccccc1Cl)c1ccncc1 | 69.2 | 234
8 | CCN1C(=O)C(O)(C2COC(C)(C)CC2=O)c2ccccc21 (centres undefined) | 41 | 31.5
9 | CC(C)(C)C1C/C(=C/c2ccccn2)C(=O)/C(=C/c2ccccn2)C1 (centres undefined) | 155 | 65.4
10 | Cc1cc(C(=O)N/N=C/c2ccc([N+](=O)[O-])o2)c(C)o1 | 105 | 142
11 | O=C(c1ccc([N+](=O)[O-])o1)N1CCN(Cc2ccccc2)CC1 | 4.42 | 151
12 | O=[N+]([O-])C(=C\Nc1ccccc1O)/C=N/c1ccccc1O | 3.94 | 57.2
13 | O=C(C=Cc1cccc(Cl)c1)c1ccccc1 | 6.7 | 252
14 | OC(CCCC(O)c1ccccc1)c1ccccc1 (centres undefined) | 31.6 | 203
15 | CC(NC(=O)c1cccc(F)c1)C1CC2CCC1C2 (centres undefined) | < 0 | 273
16 | Clc1cnc(N/N=C/c2ccco2)c(Cl)c1 | 93.8 | 189
17 | CNc1ncnc2c1ncn2[C@@H]1O[C@H](CO)[C@@H](O)[C@H]1O | 32.7 | 39.4
18 | CC(C)Oc1ccc(C(=O)NC(=S)Nc2ccc(CN3CCOCC3)cc2)cc1 | 2.7 | 136
19 | CCCCCCNC(=O)c1ccc(Br)o1 | < 0 | 225
20 | CCCCNC(=S)Nc1ccc2c[nH]nc2c1 | 37.5 | 190
21 | CC(=O)c1c(C)[n+]([O-])c2cc(C)ccc2[n+]1[O-] | 31.7 | 95.3

Row | SMILES | area under cytotoxicity dose-response curve [1] | area under intracellular growth-inhibition dose-response curve [2]
22 | C/C(=N\NC(N)=S)c1ccc2c(c1)OCCO2 | 25.3 | 196
23 | Cc1c(Cl)cccc1NC(=S)NCC(O)c1ccccc1 (centres undefined) | 81.9 | 158
24 | NC(=S)N/N=C1\CCOc2ccc(Cl)cc21 | 31.5 | 179
25 | CNC(=S)Nc1ccc(-c2nc3ccc(C)cc3s2)cc1 | 5.79 | 262
26 | O=C(NC1CCCCC1)c1ccc2snnc2c1 | < 0 | 156
27 | O=C(c1cccs1)N1CCC(c2ccccc2)C1 (centres undefined) | < 0 | 189
28 | CCOC(=O)c1oc2nc(C(C)C)c3c(c2c1N)CC(C)(C)OC3 | 80.3 | 124
29 | Nc1nc(F)nc2c1ncn2[C@@H]1O[C@H](CO)[C@@H](O)[C@H]1O | 236 | < 0
30 | O=C(NN=C1CCCCCC1)c1ccncc1 | 11.3 | 273
31 | CCC(CO)NCCNC(CC)CO (centres undefined) | 88.1 | 154
32 | COc1ccc(OC)c(/C=N/NC(=O)c2ccncc2)c1 | 66.9 | 254
33 | COC(=O)c1ccc2nc(C)cc(Nc3ccc(N(C)C)cc3)c2c1.Cl | < 0 | 243
34 | CCOc1ccc(CCNC(=O)c2ccc3c(=O)[nH]c4c(C(=O)NC(C)C)sc(=S)n4c3c2)cc1 | 10.1 | 225
35 | CN(CC(=O)Nc1ccccc1Br)C(=O)c1ccccc1Sc1ccccc1C#N | 24.4 | 45.3
36 | COc1ccc(/C=N/NC(=O)c2ccncc2)cc1CN1CCCc2ccccc21 | 19.4 | 201
37 | COc1ccc(CCNC(=O)c2cc(-c3ccccn3)nc3ccccc23)cc1 | 17.5 | 40.6
38 | CCC[C@@H](CN1CCC[C@H]1CN1C(N)=NC[C@@H]1Cc1ccccc1)N1C[C@@H](Cc2ccccc2)N(CCCC2CCCC2)C1=N | 52.7 | 200
39 | CC[n+]1c(/C=C/N(C)c2ccccc2)n(-c2ccccc2)c2ccc(-c3nc4ccccc4s3)cc21.[I-] | 146 | 162
40 | Cc1ccc(-c2nn(-c3ccccc3)cc2/C=N/NC(=O)c2ccncc2)o1 | 48.7 | 261
41 | CC(=O)Oc1c(C)cc(Cl)cc1C(=O)Nc1ccc([N+](=O)[O-])cc1Cl | 113 | 230
42 | O=C(Nc1ccc(Br)cc1)NC1CCCCCCC1 | 26.1 | 263

Row | SMILES | area under cytotoxicity dose-response curve [1] | area under intracellular growth-inhibition dose-response curve [2]
43 | Cc1ccc2nc(C)cc(S)c2c1 | < 0 | 108
44 | Cl.c1ccc(-c2nnc(CN3CCCCC3)o2)cc1 | 36 | 267
45 | O=C1/C(=C/c2cccs2)CCC1C1CCCC1 (centres undefined) | < 0 | 132
46 | O=[N+]([O-])c1ccc(CN2CCN(c3ccc(Cl)cc3)CC2)o1 | 33.9 | 222
47 | Cc1cc(NC(=O)c2ccc([N+](=O)[O-])o2)ccc1NC(=O)c1ccco1 | 88.8 | 63.8
48 | Cc1nnc(SCC2=C(C(=O)O)N3C(=O)C(NC(=O)Cn4nc(C(F)F)c(Cl)c4C)C3SC2)s1 (centres undefined) | < 0 | 193
49 | Cc1cc(NS(=O)(=O)c2ccc(N)cc2)no1 | 28.4 | 57.8
50 | C=CCn1c(SCC(=O)NC(=O)Cc2ccccc2)nc2ccccc2c1=O | < 0 | 158
51 | O=C(c1ccc([N+](=O)[O-])o1)N1CCN(c2nc3ccc(F)cc3s2)CC1 | 12.7 | 22.9
52 | O=C(NCc1cccs1)c1ccc(Br)o1 | < 0 | 191
53 | NC(=S)c1cn(C2OC(CO)C(O)C2O)c2ncnc(N)c12 (centres undefined) | 36.6 | 70.2
54 | O=C(NN=Cc1ccc2c(c1)OCO2)c1ccncc1 | 65.5 | 238
55 | COc1ccc(-c2[nH]ncc2/C=N/NC(=O)c2ccncc2)c(OC)c1 | < 0 | 218
56 | CC(C)C(=O)N1CCN(c2ccc(NC(=O)c3ccc([N+](=O)[O-])o3)cc2Cl)CC1 | 79.8 | 109
57 | CC(NC(=O)c1cccc(Cl)c1)C1CC2CCC1C2 (centres undefined) | 48.5 | 225
58 | CC(=O)c1cc(NC(=O)c2ccc(C)cc2)c(=O)oc1/C=C/N(C)C | 37.1 | 115
59 | Cc1ccc(C(=O)OCC(=O)NC2CCCC(C)C2C)cc1S(=O)(=O)N1CCCCC1 (centres undefined) | < 0 | 136
60 | O=C(Nc1ccc(N2CCN(C(=O)c3ccc(Cl)cc3)CC2)cc1)c1ccc([N+](=O)[O-])o1 | 34.5 | 246
61 | CN(CC(=O)Nc1ccc(OC(F)(F)F)cc1)C(=O)/C=C/c1cc2c(cc1[N+](=O)[O-])OCO2 | < 0 | 135
62 | Cc1ccc(C(=O)Sc2cccccc2=O)cc1 | 143 | < 0
